Here are results for one compound from paper PMC10916551, “NNMT/1‐MNA Promote Cell‐Cycle Progression of Breast Cancer by Targeting UBC12/Cullin‐1‐Mediated Degradation of P27 Proteins” (Advanced Science, 2023).

pKd: −log10 of the molar value.

The target of this experiment is T1, UBC12 (Homo sapiens, UniProt P61081).
T1 construct: gene UBE2M; amine-coupled to CM5 chip
T1 sequence (P61081 1-183): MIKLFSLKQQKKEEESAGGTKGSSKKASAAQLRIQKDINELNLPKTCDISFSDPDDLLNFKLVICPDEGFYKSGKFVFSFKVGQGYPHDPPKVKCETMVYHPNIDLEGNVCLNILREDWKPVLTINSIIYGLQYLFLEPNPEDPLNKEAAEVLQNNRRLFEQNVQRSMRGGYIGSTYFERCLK
The experiment can be described thus: SPR (Biacore T200), UBC12 immobilised on CM5 chip. Format: binding. Background: In SPR one partner is held on a chip, and binding of the other changes the refractive index at the surface.

The term pKd denotes the negative decadic logarithm of the Kd, by convention in mol/L. Read a high pKd as a low Kd.

With `C[n+]1cccc(C(N)=O)c1` [1-MNA], the pKd is 6.77.
